Laboratory results taken from PubChem BioAssay AID2060909 (Molecular Pharmacology Branch, DTP, NCI, 2025).

Test system: 362531-283-R-J2-PDC complex spheroid viability
Assay: Anticancer human tumor 362531-283-R-J2-PDC patient-derived colon adenocarcinoma cell line growth inhibition [RAS]
Settings: for IC50: curve of first compound; for viability, T/C: stronger effect = lower value
Source text: RAS pathway inhibitors in Combinations in Complex Spheroids
A high-throughput screen of multi-cell type tumor spheroids was designed to identify active combinations of RAS pathway inhibitors and targeted small molecules. Complex spheroids include a stromal component modeled by human endothelial cells (HUVEC) and fibroblasts modeled by human mesenchymal stem cells (MSCs). The concentration ranges selected for each drug and investigational agent were based upon clinically achievable concentrations if the clinical Cmax of the agent was known.
Compounds. The drugs and investigational agents: abemaciclib (NSC768073), cobimetinib (NSC768068), divarasib (GDC6063, NSC841802), docetaxel (NSC628503), GDC-1971 (RLY-1971, NSC841576), gemcitabine (NSC613327), inavolisib (NSC800729), ipatasertib (NSC767898), KB-0742 (NSC834161), MRTX-1133 (NSC836407), osimertinib (NSC779217), RMC-4630 (NSC839698), RMC-6236 (NSC851965), RMC-6291 (NSC852671), Ro-3306 (NSC812927), sapanisertib (NSC764658), SN-38 (NSC673596), staurosporine (NSC755774), SY5609 (NSC837396), and tovorafenib (DAY101, NSC766906), were obtained from the National Cancer Institute (NCI) Developmental Therapeutics Program Chemical Repository. The FDA-approved anticancer drug set is available from the NCI Developmental Therapeutics Program. […] The stock solutions were prepared in dimethyl sulfoxide (DMSO, Sigma-Aldrich, St. Louis, MO, cat. D2650) at 800-fold the tested concentration and stored at -70 degrees C prior to their use. All drugs and investigational agents were tested over a range starting from a high concentration at or near the clinical Cmax and decreasing in half-log increments. If the clinical Cmax for an agent had not been determined, the highest concentration tested was 10 microM.
Cell Culture. All cells were maintained in an incubator at 37 degrees C and 5% CO2 with 95% humidity. The PDC lines were cultured according to standard operating procedures established by the NCI PDMR. All PDCs were thawed and cultured in Matrigel-coated flasks prepared with a working solution of 1X Ham's F-12 nutrient mix, without supplementation (Invitrogen, Waltham, MA, cat. 11765054), 100 U/mL penicillin-streptomycin (Invitrogen, cat. 15140122), and 2.5% Matrigel (Corning Inc., Corning, NY, cat. 354248) for the first three passages. The 362531-283-R-J2-PDC and 782815-120-R-J1-PDC lines were cultured in 6C/Colon 1B media, which includes advanced DMEM/F-12 (Thermo Fisher Scientific, cat. 12634028), 10 mM HEPES (Thermo Fisher Scientific, cat. 15630080), 1X GlutaMAX supplement (Thermo Fisher Scientific, cat. 35050061), 0.1 mg/mL primocin (InvivoGen, San Diego, CA, cat. ant-pm-2), 10% defined fetal bovine serum, heat inactivated (HyClone Laboratories Inc., Logan, UT, cat. SH30070.03HI), 50% L-WRN conditioned media (ATCC, cat. CRL-3276), 1.25 mM N-Acetyl-L-cysteine (Sigma-Aldrich, cat. A9165), 10 mM nicotinamide (Sigma-Aldrich, cat. N0636), 1X B-27 supplement (Thermo Fisher Scientific, cat. 17504044), 1X N-2 supplement (Thermo Fisher Scientific, cat. 17502048), 50 ng/mL human EGF (Thermo Fisher Scientific, cat. PHG0311), and 10 microM Y-27632 dihydrochloride (Tocris Bioscience, cat. 1254). The K12877-001-R-J1-PDC line was cultured in 6I media, which includes all 6C/Colon 1B media plus 10 ng/mL human FGF-10 (PeproTech, cat. 100-26), 1 ng/mL human FGF-2 (PeproTech, cat. 100-18B), 1 µM prostaglandin E2 (Tocris Bioscience, cat. 2296), […] hydrocortisone (Sigma-Aldrich, cat. H4001), and […] bovine insulin (Sigma-Aldrich, cat. I6634). The K86415-001-R-J1-PDC line was cultured in 6D media, which includes all 6C/Colon 1B media components minus the L-WRN conditioned media. The 485176-168-R4-J1-PDC was cultured in PANC media, which includes all 6C/Colon 1B media plus 100 ng/mL human FGF-10 (PeproTech, cat. 100-26), 500 nM SB-431542 (Selleckchem, cat. S1067), and 10 nM gastrin (Tocris Bioscience, cat. 3006). […]

[1] = second compound 0.0316 µM, first compound 0.0316 µM
[2] = second compound 0.0316 µM, first compound 0.1 µM
[3] = second compound 0.0316 µM, first compound 0.316 µM
[4] = second compound 0.0316 µM, first compound 1 µM
[5] = second compound 0.1 µM, first compound 0.0316 µM
[6] = second compound 0.1 µM, first compound 0.1 µM
[7] = second compound 0.1 µM, first compound 0.316 µM
[8] = second compound 0.1 µM, first compound 1 µM
[9] = second compound 0.316 µM, first compound 0.0316 µM
[10] = second compound 0.316 µM, first compound 0.1 µM
[11] = second compound 0.316 µM, first compound 0.316 µM
[12] = second compound 0.316 µM, first compound 1 µM
[13] = second compound 1 µM, first compound 0.0316 µM
[14] = second compound 1 µM, first compound 0.1 µM
[15] = second compound 1 µM, first compound 0.316 µM
[16] = second compound 1 µM, first compound 1 µM
[17] = second compound 3.16 µM, first compound 0.0316 µM
[18] = second compound 3.16 µM, first compound 0.1 µM
[19] = second compound 3.16 µM, first compound 0.316 µM
[20] = second compound 3.16 µM, first compound 1 µM
[21] = second compound 10 µM, first compound 0.0316 µM
[22] = second compound 10 µM, first compound 0.1 µM
[23] = second compound 10 µM, first compound 0.316 µM
[24] = second compound 10 µM, first compound 1 µM
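Also: spheroids exposed to the agents for 7 days before readout.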
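For viability, T/C in this document: luminescence viability as percent of DMSO vehicle control wells.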

With CC(Nc1ccc2c(c1)OCCn1cc(N3C(=O)OCC3C(F)F)nc1-2)C(N)=O (centres undefined) + C#Cc1c(F)ccc2cc(O)cc(-c3ncc4c(N5CC6CCC(C5)N6)nc(OCC56CCCN5CC(F)C6)nc4c3F)c12 the IC50 (second compound 0.0316 µM) was 1290 nM, the IC50 (second compound 0.1 µM) was 963 nM and the IC50 (second compound 0.316 µM) was 847 nM. It also gave an IC50 (second compound 1 µM) of 421 nM, an IC50 (second compound 3.16 µM) of 119 nM and an IC50 (second compound 10 µM) of 42.9 nM. For the same molecule, the viability, T/C [1] was 90.7%, the viability, T/C [2] was 88.4% and the viability, T/C [3] was 79%. It also gave a viability, T/C [4] of 55%, a viability, T/C (second compound 0.0316 µM, first compound 3.16 µM) of 33.7% and a viability, T/C (second compound 0.0316 µM, first compound 10 µM) of 31%. It also gave a viability, T/C [5] of 95%, a viability, T/C [6] of 77% and a viability, T/C [7] of 69.9%. For the same molecule, the viability, T/C [8] was 48.6%, the viability, T/C (second compound 0.1 µM, first compound 3.16 µM) was 34.5% and the viability, T/C (second compound 0.1 µM, first compound 10 µM) was 28.8%. For the same molecule, the viability, T/C [9] was 103%, the viability, T/C [10] was 81.5% and the viability, T/C [11] was 63.7%. It also gave a viability, T/C [12] of 50.9%, a viability, T/C (second compound 0.316 µM, first compound 3.16 µM) of 29.7% and a viability, T/C (second compound 0.316 µM, first compound 10 µM) of 13.8%. For the same molecule, the viability, T/C [13] was 80.5%, the viability, T/C [14] was 59.4% and the viability, T/C [15] was 62.9%. The viability, T/C [16] was 34.2%, the viability, T/C (second compound 1 µM, first compound 3.16 µM) was 25.6% and the viability, T/C (second compound 1 µM, first compound 10 µM) was 18%. The viability, T/C [17] was 62%, the viability, T/C [18] was 51.9% and the viability, T/C [19] was 31.4%. It also gave a viability, T/C [20] of 7.66%, a viability, T/C (second compound 3.16 µM, first compound 3.16 µM) of 7.58% and a viability, T/C (second compound 3.16 µM, first compound 10 µM) of 4.5%. The viability, T/C [21] was 56.1%, the viability, T/C [22] was 33% and the viability, T/C [23] was 6.59%. The viability, T/C [24] was 4.96%, the viability, T/C (second compound 10 µM, first compound 3.16 µM) was 3.74% and the viability, T/C (second compound 10 µM, first compound 10 µM) was 2.42%.

With O=C(c1ccc(F)c(F)c1Nc1ccc(I)cc1F)N1CC(O)([C@@H]2CCCCN2)C1 + C#Cc1c(F)ccc2cc(O)cc(-c3ncc4c(N5CC6CCC(C5)N6)nc(OCC56CCCN5CC(F)C6)nc4c3F)c12 the IC50 (second compound 0.0316 µM) was 413 nM, the IC50 (second compound 0.1 µM) was 350 nM and the IC50 (second compound 0.316 µM) was 350 nM. For the same molecule, the IC50 (second compound 1 µM) was 181 nM, the IC50 (second compound 3.16 µM) was 37.2 nM and the IC50 (second compound 10 µM) was < 3.16 nM. It also gave a viability, T/C (second compound 0.0316 µM, first compound 0.00316 µM) of 97.9%, a viability, T/C (second compound 0.0316 µM, first compound 0.01 µM) of 101% and a viability, T/C [1] of 101%. The viability, T/C [2] was 88.1%, the viability, T/C [3] was 62.9% and the viability, T/C [4] was 8.48%. The viability, T/C (second compound 0.1 µM, first compound 0.00316 µM) was 97.6%, the viability, T/C (second compound 0.1 µM, first compound 0.01 µM) was 98.4% and the viability, T/C [5] was 95.5%. For the same molecule, the viability, T/C [6] was 72.1%, the viability, T/C [7] was 57.6% and the viability, T/C [8] was 4.9%. The viability, T/C (second compound 0.316 µM, first compound 0.00316 µM) was 90.1%, the viability, T/C (second compound 0.316 µM, first compound 0.01 µM) was 88.1% and the viability, T/C [9] was 78.1%. It also gave a viability, T/C [10] of 66.3%, a viability, T/C [11] of 61.3% and a viability, T/C [12] of 3.76%. It also gave a viability, T/C (second compound 1 µM, first compound 0.00316 µM) of 82.6%, a viability, T/C (second compound 1 µM, first compound 0.01 µM) of 78.6% and a viability, T/C [13] of 78.2%. The viability, T/C [14] was 79.1%, the viability, T/C [15] was 22.9% and the viability, T/C [16] was 3.27%. For the same molecule, the viability, T/C (second compound 3.16 µM, first compound 0.00316 µM) was 65.4%, the viability, T/C (second compound 3.16 µM, first compound 0.01 µM) was 60.5% and the viability, T/C [17] was 56.5%. For the same molecule, the viability, T/C [18] was 10.6%, the viability, T/C [19] was 9.05% and the viability, T/C [20] was 1.7%. The viability, T/C (second compound 10 µM, first compound 0.00316 µM) was 28%, the viability, T/C (second compound 10 µM, first compound 0.01 µM) was 31.1% and the viability, T/C [21] was 13.9%. For the same molecule, the viability, T/C [22] was 9.85%, the viability, T/C [23] was 6.01% and the viability, T/C [24] was 1.71%.
